Assay results as given in patent US5668131A, “Substituted aminoalkylaminopyridines” (BYK Gulden Lomberg Chemische Fabrik GmbH, priority 1993, dated 1997).
Structures can show the parent of a compound that is named as a salt.

Tested on: Helicobacter pylori
Assay: Activity on Helicobacter pylori (MIC, Columbia agar, 4 days growth period)
Assay type: cell-based
Details: Columbia agar (Oxoid), growth period of 4 days; for MIC: Helicobacter pylori, 96 h

Row | SMILES | MIC | MIC-Value
1 | CN(CCN1CCc2ccccc2C1)c1ccnc(CSc2nc3ccccc3[nH]2)c1Cl [Compound 2, 2-{3-Chloro-4-{N-[2-(1,2,3,4-tetrahydro-2-isoquinolinyl)ethyl]-N-methylamino}-2-pyridyl}-methylthio-1H-benzimidazole trihydrochloride] | < 1 µg/mL | –
2 | Cc1c(N(C)CCN(C)Cc2ccco2)ccnc1CSc1nc2ccccc2[nH]1.Cl.Cl.Cl [Compound 4, 2-{3-Methyl-4-{N-{2-[N-(2-furfuryl)-N-methylamino]-ethyl}-N-methylamino}-2-pyridyl}-methylthio-1H-benzimidazole trihydrochloride] | – | < 1 µg/mL
3 | CN(CCN1CCc2ccccc2C1)c1ccnc(CSc2nc3ncccc3[nH]2)c1Cl [Compound 5, 2-{3-Chloro-4-{N-[2-(1,2,3,4-tetrahydro-2-isoquinolinyl)ethyl]-N-methylamino)-2-pyridyl}-methylthio-1H-imidazo[5,4-b]pyridine] | < 1 µg/mL | –
4 | CN(CCc1ccccc1)CCN(C)c1ccnc(CSc2nc3ccccc3[nH]2)c1Cl [Compound 9, 2-{3-Chloro-4-{N-[2-(N-methyl-N-phenethylamino)-ethyl]-N-methylamino}-2-pyridyl}-methylthio-1H-benzimidazole trihydrochloride] | < 1 µg/mL | –
5 | CN(CCN1CCCCC1)c1ccnc(CSc2nc3ccccc3[nH]2)c1Cl [Compound 13, 2-{3-Chloro-4-[N-(2-piperidinoethyl)-N-methylamino]-2-pyridyl}-methylthio-1H-benzimidazole] | < 1 µg/mL | –
6 | COc1cc2c(cc1OC)CN(CCN(C)c1ccnc(CSc3nc4ccccc4[nH]3)c1Cl)CC2 [Compound 14, 2-{3-Chloro-4-{N-[2-(6,7-dimethoxy-1,2,3,4-tetrahydro-2-isoquinolinyl)ethyl]-N-methylamino}-2-pyridyl}-methylthio-1H-benzimidazole] | < 1 µg/mL | –
7 | CN(CCN1CCN(Cc2ccccc2)CC1)c1ccnc(CSc2nc3ccccc3[nH]2)c1Cl [Compound 16, 2-{3-Chloro-4-{N-[2-(4-benzylpiperazino)-ethyl]-N-methylamino}-2-pyridyl}-methylthio-1H-benzimidazole trihydrochloride] | < 1 µg/mL | –
8 | COc1ccccc1N1CCN(CCN(C)c2ccnc(CSc3nc4ccccc4[nH]3)c2Cl)CC1 [Compound 17, 2-{3-Chloro-4-{N-[2-(4-(2-methoxyphenyl)-piperazino)-ethyl]-N-methylamino}-2-pyridyl}-methylthio-1H-benzimidazole trihydrochloride] | < 1 µg/mL | –
9 | CN(CCCN1CCc2ccccc2C1)c1ccnc(CSc2nc3ccccc3[nH]2)c1Cl [Compound 18, 2-{3-Chloro-4-{N-[3-(1,2,3,4-tetrahydro-2-isoquinolinyl)-propyl]-N-methylamino}-2-pyridyl}-methylthio-1H-benzimidazole trihydrochloride] | < 1 µg/mL | –

The next lines start with results.

Row | MIC | SMILES | MIC-Value
10 | < 1 µg/mL | CCN(CCN(C)c1ccnc(CSc2nc3ccccc3[nH]2)c1Cl)Cc1ccccc1 [Compound 1, 2-{3-Chloro-4-{N-[2-(N-benzyl-N-ethylamino)ethyl]-N-methylamino}-2-pyridyl)-methylthio-1H-benzimidazole trihydrochloride] | –
11 | < 1 µg/mL | CN(CCN(C)c1ccnc(CSc2nc3ccccc3[nH]2)c1Cl)Cc1ccccc1 [Compound 6, 2-{3-Chloro-4-{N-[2-(N-benzyl-N-methylamino)-ethyl]-N-methylamino}-2-pyridyl}-methylthio-1H-benzimidazole trihydrochloride] | –
12 | < 1 µg/mL | CN(CCN(C)c1ccnc(CSc2nc3ccccc3[nH]2)c1Cl)Cc1ccco1 [Compound 10, 2-{3-Chloro-4-{N-[2-(N-furfuryl-N-methylamino)ethyl]-N-methylamino}-2-pyridyl}-methylthio-1H-benzimidazole trihydrochloride] | –
13 | < 1 µg/mL | CN(CCN1CCC(c2ccccc2)CC1)c1ccnc(CSc2nc3ccccc3[nH]2)c1Cl [Compound 11, 2-{3-Chloro-4-{N-[2-(4-phenyl-piperidino)-ethyl]-N-methylamino}-2-pyridyl}-methylthio-1H-benzimidazole] | –
14 | < 1 µg/mL | CN(CCN1CCC(Cc2ccccc2)CC1)c1ccnc(CSc2nc3ccccc3[nH]2)c1Cl [Compound 12, 2-{3-Chloro-4-{N-[2-[4-benzyl-piperidino)-ethyl]-N-methylamino}-2-pyridyl}-methylthio-1H-benzimidazole] | –
15 | < 1 µg/mL | CN(CCN1CCN(c2ccccc2)CC1)c1ccnc(CSc2nc3ccccc3[nH]2)c1Cl [Compound 15, 2-{3-Chloro-4-{N-[2-(4-phenylpiperazino)-ethyl]-N-methylamino}-2-pyridyl}-methylthio-1H-benzimidazole hydrochloride] | –
16 | < 1 µg/mL | CN(CCCN(C)c1ccnc(CSc2nc3ccccc3[nH]2)c1Cl)Cc1ccccc1 [Compound 19, 2-{3-Chloro-4-{N-[3-(N-benzyl-N-methylamino)propyl]-N-methylamino}-2-pyridyl}-methylthio-1H-benzimidazole trihydrochloride] | –
17 | < 1 µg/mL | COc1cc2c(cc1OC)CN(CCCN(C)c1ccnc(CSc3nc4ccccc4[nH]3)c1Cl)CC2 [Compound 20, 2-{3-Chloro-4-{N-[3-(6,7-dimethoxy-1,2,3,4-tetrahydro-2-isoquinolinyl)-propyl]-N-methylamino}-2-pyridyl}-methylthio-1H-benzimidazole trihydrochloride] | –
18 | < 1 µg/mL | CN(CCCN1CCC(Cc2ccccc2)CC1)c1ccnc(CSc2nc3ccccc3[nH]2)c1Cl [Compound 21, 2-{3-Chloro-4-{N-[3-(4-benzyl-piperidino)-propyl]-N-methylamino}-2-pyridyl}-methylthio-1H-benzimidazole trihydrochloride] | –
